The results in this text go back to PubChem BioAssay AID248 (DTP/NCI, 2004).

Structures are written as SMILES. “And” between values parts separate entries of the source, which are not always exact repeats. Equal values may be shown once. Toxic doses and inconclusive results are not listed.

The test system of the experiment is L1210 leukemia ip in BDF1 mice, survival T/C. The experiment in a line: NCI In Vivo Anticancer Drug Screen. Data for tumor model L1210 Leukemia (intraperitoneal) in B6D2F1 (BDF1) mice. Particulars: higher = longer survival. Put shortly:
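Antitumor effect is assessed in tumor-bearing animals. Survival in the compound arm is compared with a vehicle-dosed control arm and expressed as their quotient.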

Setting [1] is: endpoint: mean survival time, dose: 50.0 mg/kg/injection, schedule: Q01DX001 (ip), vehicle: carboxymethylcellulose (CMC).
[2] abbreviates: endpoint: mean survival time, dose: 100.0 mg/kg/injection, schedule: Q01DX001 (ip), vehicle: carboxymethylcellulose (CMC).
Where [3] appears, read: endpoint: mean survival time, dose: 200.0 mg/kg/injection, schedule: Q01DX001 (ip), vehicle: carboxymethylcellulose (CMC).
Where [4] appears, read: endpoint: mean survival time, dose: 400.0 mg/kg/injection, schedule: Q01DX001 (ip), vehicle: carboxymethylcellulose (CMC).
The mark [5] stands for this setting: endpoint: mean survival time, dose: 100.0 mg/kg/injection, schedule: Q04DX003 (ip), vehicle: Klucel (hydroxypropylcellulose) (HPC).
Setting [6] is: endpoint: mean survival time, dose: 400.0 mg/kg/injection, schedule: Q04DX003 (ip), vehicle: Klucel (hydroxypropylcellulose) (HPC).

Regarding `Nc1ncnc2[nH]ncc12`, the T/C (endpoint: mean survival time, dose: 0.94 mg/kg/injection, schedule: Q01DX Z (ip), vehicle: carboxymethylcellulose (CMC)) was 92 % of control; the T/C (endpoint: mean survival time, dose: 1.7 mg/kg/injection, schedule: Q01DX015 (ip), vehicle: carboxymethylcellulose (CMC)) was 98 % of control; the T/C (endpoint: mean survival time, dose: 1.88 mg/kg/injection, schedule: Q01DX Z (ip), vehicle: carboxymethylcellulose (CMC)) was 97 % of control; the T/C (endpoint: mean survival time, dose: 2.6 mg/kg/injection, schedule: Q01DX015 (ip), vehicle: carboxymethylcellulose (CMC)) is 96 % of control and 99 % of control; the T/C (endpoint: mean survival time, dose: 3.75 mg/kg/injection, schedule: Q01DX Z (ip), vehicle: carboxymethylcellulose (CMC)) was 114 % of control; the T/C (endpoint: mean survival time, dose: 4.0 mg/kg/injection, schedule: Q01DX015 (ip), vehicle: carboxymethylcellulose (CMC)) is 107 % of control and 108 % of control. The T/C was 111 % of control and 114 % of control (endpoint: mean survival time, dose: 6.0 mg/kg/injection, schedule: Q01DX015 (ip), vehicle: carboxymethylcellulose (CMC)); 114 % of control (endpoint: mean survival time, dose: 7.5 mg/kg/injection, schedule: Q01DX Z (ip), vehicle: carboxymethylcellulose (CMC)); 109 % of control (endpoint: mean survival time, dose: 8.0 mg/kg/injection, schedule: Q02DX010 (ip), vehicle: carboxymethylcellulose (CMC)); 109 % of control and 120 % of control (endpoint: mean survival time, dose: 9.0 mg/kg/injection, schedule: Q01DX015 (ip), vehicle: carboxymethylcellulose (CMC)); 115 % of control (endpoint: mean survival time, dose: 13.0 mg/kg/injection, schedule: Q02DX010 (ip), vehicle: other); 106 % of control (endpoint: mean survival time, dose: 13.5 mg/kg/injection, schedule: Q01DX015 (ip), vehicle: carboxymethylcellulose (CMC)). The T/C is 120 % of control (endpoint: mean survival time, dose: 20.0 mg/kg/injection, schedule: Q02DX010 (ip), vehicle: other); 106 % of control (endpoint: mean survival time, dose: 25.0 mg/kg/injection, schedule: Q01DX009 (ip), vehicle: saline); 115 % of control (endpoint: mean survival time, dose: 30.0 mg/kg/injection, schedule: Q02DX010 (ip), vehicle: other); 121 % of control (endpoint: mean survival time, dose: 45.0 mg/kg/injection, schedule: Q02DX010 (ip), vehicle: other); 91 % of control (endpoint: mean survival time, dose: 67.0 mg/kg/injection, schedule: Q02DX010 (ip), vehicle: other); 111 % of control (endpoint: mean survival time, dose: 80.0 mg/kg/injection, schedule: Q01DX001 (ip), vehicle: carboxymethylcellulose (CMC)). Also, the T/C (endpoint: mean survival time, dose: 120.0 mg/kg/injection, schedule: Q01DX001 (ip), vehicle: carboxymethylcellulose (CMC)) is 103 % of control; the T/C (endpoint: mean survival time, dose: 182.0 mg/kg/injection, schedule: Q01DX001 (ip), vehicle: carboxymethylcellulose (CMC)) was 117 % of control; the T/C (endpoint: median survival time, dose: 3.0 mg/kg/injection, schedule: Q01DX009 (ip), vehicle: saline) was 100 % of control and 105 % of control; the T/C (endpoint: median survival time, dose: 6.0 mg/kg/injection, schedule: Q01DX009 (ip), vehicle: saline) was 100 % of control and 111 % of control; the T/C (endpoint: median survival time, dose: 12.0 mg/kg/injection, schedule: Q01DX009 (ip), vehicle: saline) was 112 % of control; the T/C (endpoint: median survival time, dose: 24.0 mg/kg/injection, schedule: Q01DX009 (ip), vehicle: saline) is 100 % of control and 112 % of control.

For the compound `CCN(CC)CCCC(C)Nc1ccnc2ccc(-c3ccccc3)cc12` (stereo unspecified), the T/C is 100 % of control (endpoint: mean survival time, dose: 5.0 mg/kg/injection, schedule: Q01DX001 (ip), vehicle: saline); 100 % of control (endpoint: mean survival time, dose: 10.0 mg/kg/injection, schedule: Q01DX001 (ip), vehicle: saline); 91 % of control (endpoint: mean survival time, dose: 20.0 mg/kg/injection, schedule: Q01DX001 (ip), vehicle: saline); 96 % of control (endpoint: mean survival time, dose: 40.0 mg/kg/injection, schedule: Q01DX001 (ip), vehicle: saline); 104 % of control (endpoint: mean survival time, dose: 80.0 mg/kg/injection, schedule: Q01DX001 (ip), vehicle: saline).

With `NC1=NC(c2ccccc2)C2=C(N1)C(=O)N(Cc1ccccc1)C2` (stereo unspecified), the T/C runs as follows: under setting [1], 98 % of control; under setting [2], 101 % of control; under setting [3], 98 % of control; under setting [4], 95 % of control.

As for `NC(=O)c1cc(Cl)cc(Cl)c1Br`, the T/C (endpoint: mean survival time, dose: 100.0 mg/kg/injection, schedule: Q04DX003 (ip), vehicle: other) was 95 % of control and the T/C (endpoint: mean survival time, dose: 200.0 mg/kg/injection, schedule: Q04DX003 (ip), vehicle: other) was 103 % of control.

For the compound `COC(=O)CCc1ccc(NP(=O)(N2CC2)N2CC2)cc1`, the T/C is 122 % of control (endpoint: mean survival time, dose: 25.0 mg/kg/injection, schedule: Q01DX015 (ip), vehicle: carboxymethylcellulose (CMC)) and 119 % of control (endpoint: mean survival time, dose: 50.0 mg/kg/injection, schedule: Q01DX015 (ip), vehicle: carboxymethylcellulose (CMC)).

As to `CCOC(=O)c1cc(C)nc(Cl)c1C#N`, the T/C runs as follows: under setting [2], 96 % of control; under setting [3], 96 % of control; under setting [4], 93 % of control.

`O=C(O)CC(=O)c1ccc(I)cc1`: the T/C (endpoint: mean survival time, dose: 75.0 mg/kg/injection, schedule: Q01DX001 (ip), vehicle: saline) was 94 % of control.

As for `COc1ccc(CN2CCCN(Cc3ccc(OC)cc3OC)C2c2ccc(N(CCCl)CCCl)cc2F)c(OC)c1`, the T/C by setting is: under setting [1], 104 % of control; under setting [2], 98 % of control; under setting [3], 104 % of control; under setting [4], 106 % of control.

In the case of `O=C(Oc1ccccc1I)c1cc(I)c(I)c(I)c1`, the T/C was 92 % of control under setting [5] and 94 % of control under setting [6].

Regarding `CC(C)(C)C1(C)CC1(Br)Br` (stereo unspecified), the T/C reads like this: (endpoint: mean survival time, dose: 50.0 mg/kg/injection, schedule: Q01DX009 (ip), vehicle: saline) 98 % of control; (endpoint: mean survival time, dose: 100.0 mg/kg/injection, schedule: Q01DX009 (ip), vehicle: saline) 101 % of control; (endpoint: mean survival time, dose: 200.0 mg/kg/injection, schedule: Q01DX009 (ip), vehicle: saline) 98 % of control.

As to `CNC(=N)c1ccc(NC(=N)c2ccc(NC(=N)c3ccc(NC(=O)Nc4ccc(C(=N)NC)cc4)cc3)cc2)cc1`, the T/C by setting is: (endpoint: mean survival time, dose: 1.87 mg/kg/injection, schedule: Q01DX015 (ip), vehicle: water) 114 % of control; (endpoint: mean survival time, dose: 3.0 mg/kg/injection, schedule: Q01DX015 (sc), vehicle: water) 103 % of control; (endpoint: mean survival time, dose: 4.4 mg/kg/injection, schedule: Q01DX015 (sc), vehicle: water) 101 % of control; (endpoint: mean survival time, dose: 6.7 mg/kg/injection, schedule: Q01DX015 (sc), vehicle: water) 103 % of control; (endpoint: mean survival time, dose: 7.5 mg/kg/injection, schedule: Q01DX015 (ip), vehicle: water) 206 % of control; (endpoint: mean survival time, dose: 15.0 mg/kg/injection, schedule: Q01DX015 (sc), vehicle: water) 206 % of control. Further, where the note is “endpoint: mean survival time, dose: 22.5 mg/kg/injection, schedule: Q01DX015 (sc), vehicle: water”, the T/C was 158 % of control.

As to `c1ccc(CCSc2ccccc2)cc1`, the T/C is 102 % of control (endpoint: mean survival time, dose: 100.0 mg/kg/injection, schedule: Q01DX009 (ip), vehicle: saline with Tween-80); 103 % of control (endpoint: mean survival time, dose: 100.0 mg/kg/injection, schedule: Q04DX003 (ip), vehicle: saline with Tween-80); 98 % of control (endpoint: mean survival time, dose: 200.0 mg/kg/injection, schedule: Q01DX009 (ip), vehicle: saline with Tween-80); 97 % of control (endpoint: mean survival time, dose: 200.0 mg/kg/injection, schedule: Q04DX003 (ip), vehicle: saline with Tween-80); 95 % of control (endpoint: mean survival time, dose: 400.0 mg/kg/injection, schedule: Q01DX009 (ip), vehicle: saline with Tween-80); 94 % of control (endpoint: mean survival time, dose: 400.0 mg/kg/injection, schedule: Q04DX003 (ip), vehicle: saline with Tween-80).

On to `COc1ccc(Cl)cc1NC(=O)Nc1nccs1`, for which the T/C (endpoint: mean survival time, dose: 100.0 mg/kg/injection, schedule: Q01DX009 (ip), vehicle: Klucel (hydroxypropylcellulose) (HPC)) is 98 % of control; the T/C under setting [5] was 101 % of control; the T/C (endpoint: mean survival time, dose: 200.0 mg/kg/injection, schedule: Q01DX009 (ip), vehicle: Klucel (hydroxypropylcellulose) (HPC)) is 92 % of control; the T/C (endpoint: mean survival time, dose: 200.0 mg/kg/injection, schedule: Q04DX003 (ip), vehicle: Klucel (hydroxypropylcellulose) (HPC)) was 97 % of control; the T/C under setting [6] was 95 % of control.

For the compound `CCO/C(C)=N/c1n[n+]([O-])ccc1C`, the T/C is, setting by setting: (endpoint: mean survival time, dose: 40.0 mg/kg/injection, schedule: Q04DX002 (ip), vehicle: saline) 104 % of control; (endpoint: mean survival time, dose: 80.0 mg/kg/injection, schedule: Q04DX002 (ip), vehicle: saline) 96 % of control; (endpoint: mean survival time, dose: 160.0 mg/kg/injection, schedule: Q04DX002 (ip), vehicle: saline) 104 % of control.
